# Laboratory results as given in US8680282B2, “Cyclic inhibitors of carnitine palmitoyltransferase and treating cancer” (University Health Network, priority 2007, dated 2014).
# Assays:
# human CPT1A = target: T1, human CPT1A (Homo sapiens, UniProt P50416); experiment: Human CPT1A LC/MS assay; assay type: biochemical
# T1 construct: made in house; host or cells: Saccharomyces cerevisiae (pESC-trp) or cultured mammalian cells (pCDNA3.1); mitochondrial extract
# T1 sequence (P50416 1-773): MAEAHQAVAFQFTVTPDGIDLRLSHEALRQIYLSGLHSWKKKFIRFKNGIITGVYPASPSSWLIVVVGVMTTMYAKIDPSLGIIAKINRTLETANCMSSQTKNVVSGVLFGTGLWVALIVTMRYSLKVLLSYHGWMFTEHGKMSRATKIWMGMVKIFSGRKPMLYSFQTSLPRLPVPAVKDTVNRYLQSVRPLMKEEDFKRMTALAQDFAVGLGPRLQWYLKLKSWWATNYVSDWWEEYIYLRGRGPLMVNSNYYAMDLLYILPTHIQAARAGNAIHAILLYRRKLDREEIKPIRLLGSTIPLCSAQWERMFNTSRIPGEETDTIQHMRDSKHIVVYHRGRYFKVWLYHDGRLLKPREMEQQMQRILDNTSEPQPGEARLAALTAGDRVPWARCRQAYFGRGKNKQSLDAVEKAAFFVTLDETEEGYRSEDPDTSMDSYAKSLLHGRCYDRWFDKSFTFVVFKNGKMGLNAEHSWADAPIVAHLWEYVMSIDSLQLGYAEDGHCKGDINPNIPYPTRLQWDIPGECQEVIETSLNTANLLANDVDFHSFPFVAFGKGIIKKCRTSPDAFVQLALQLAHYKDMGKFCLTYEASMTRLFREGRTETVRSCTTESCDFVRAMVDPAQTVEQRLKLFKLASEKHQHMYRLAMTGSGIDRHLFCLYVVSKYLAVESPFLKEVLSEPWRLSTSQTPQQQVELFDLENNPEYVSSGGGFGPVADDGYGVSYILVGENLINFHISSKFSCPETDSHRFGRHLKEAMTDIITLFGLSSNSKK
# Text: Nucleotide sequences encoding human CPT1 enzymes were individually cloned into the yeast expression vector pESC-trp at the Cla1 (5′ terminus) and Pac1 (3′ terminus) restriction sites by PCR amplification of the open reading frame using oligonucleotide primers designed to encode the wild-type CPT1 protein sequence. Standard molecular biology techniques were used to transform and express the CPT1 proteins in the yeast Saccharomyces cerevisiae. The yeast cells were lysed by enzymatic degradation of the cell wall by Zymolase, and the mitochondria were isolated by standard biochemical techniques. The integrity of the isolated mitochondria was monitored by determining the activity of succinate dehydrogenase in the mitochondrial preparations. The mitochondrial extracts were stored at −80° C. in buffer containing 10 mM HEPES pH 7.4 and 250 mM sucrose.
# Human CPT1 (A, B, C) genes were additionally cloned into the pCDNA3.1 vector individually for expression in cultured mammalian cells. Cells expressing the exogenous CPT1A were identified and grown under standard conditions. Mammalian cells were harvested, and mitochondrial extracts prepared using standard biochemical methods. The mitochondrial extracts were stored at −80° C. in buffer containing 10 mM HEPES pH 7.4 and 250 mM sucrose.
# Assays were performed in 96-well plate format. Each 100 μL reaction contained 40 mM KCl, 50 mM TrisHCl pH 7.5, and 250 mM mannitol (Assay Buffer), and 1.6 μg protein of an extract, 20 μM palmitoyl-CoA, 50 μM L-carnitine, and 10 ug/mL BSA. Reactions were incubated at room temperature and stopped after 10 minutes by extraction with 200 μL of water saturated n-butanol containing myristoyl carnitine (500 nM) as an internal standard. The samples were thoroughly mixed, and the phases separated by centrifugation. Samples were prepared for analysis with a 10 fold dilution of the n-butanol phase containing the reaction product palmitoyl carnitine into a 50:50 (acetonitrile:water) solvent for analysis. 5 μL of prepared sample was separated on a Phenomenex Jupiter 5μ C4 reverse-phase column using an Agilent 1100 HPLC with a gradient from 50% acetonitrile (0.5% acetic acid) to 100% acetonitrile and quantified by detection with a Bruker Esquire 3000plus mass spectrometer. The abundance of the palmitoyl carnitine product was determined relative to the internal standard and the actual quantity of palmitoyl carnitine can be determined from a standard curve prepared using the n-butanol solution containing the internal standard.
# Compounds were evaluated in two formats, a screening format, and a dose response format. The screening format was performed by adding 25 μL compound in 20% DMSO and Assay Buffer to 25 μL of extract containing […] and Assay Buffer, followed by a 10 minute incubation at room temperature. 50 μL of 40 μM palmitoyl-CoA in Assay Buffer was added to the reaction mixture, mixed and incubated for 10 minutes at room temperature. A negative control for activity was also performed where the carnitine was omitted from the reaction. A positive control for activity was also performed by omitting compound from the solution containing 20% DMSO and Assay Buffer. The reaction mixture was extracted and analyzed as described above. The inhibition by compound was determined by comparing the control relative activity to the relative activity observed in wells containing the compound. Relative activity was determined by subtracting the relative intensity (area palmitoyl carnitine/area myristoyl carnitine) observed in the negative control from the relative intensity observed in the experimental well, and dividing by the relative activity observed in the positive control.
# [formula] Compound characterization by dose response format was performed using the above described assay conditions and a 16 point compound titration in 2 fold compound dilution steps. The DMSO concentration was kept constant at 20% (v/v) for all compound concentrations.
# SW480 = experiment: Cancer cell growth inhibition, SRB assay; assay type: cell-based, human; details: SW480; at 10 μM; SRB at Day 6; NE = no activity at 10 micromolar
# HCT-15 = experiment: Cancer cell growth inhibition, SRB assay; assay type: cell-based, human; design: Percentage of Growth Inhibition: scale not given here; details: HCT-15; at 10 μM; SRB at Day 6; NE = no activity at 10 micromolar
# SW620 = experiment: Cancer cell growth inhibition, SRB assay; assay type: cell-based, human; design: Percentage of Growth Inhibition: scale not given here; details: SW620; at 10 μM; SRB at Day 6; NE = no activity at 10 micromolar
# MCF-7 = experiment: Cancer cell growth inhibition, SRB assay; assay type: cell-based, human; design: Percentage of Growth Inhibition: scale not given here; details: MCF-7; at 10 μM; SRB at Day 6; NE = no activity at 10 micromolar
# Experimental: (§1) Human cancer cells (MCF-7, H358, H460, HCT116 p53^+/+, HCT116 p53^−/−, A172, PC-3, DU-145 and SW626) were maintained in DMEM medium containing 10% Fetal Bovine Serum (FBS) (Invitrogen, Burlington, ON, Canada) and normal cells HMEC, 184A1, NHBE and PrEC were cultured in MEGM, MEGM plus transferring and cholera toxin, BEGM and PrEGM supplemented with various growth factors (Cambrex, Charles city, Iowa, USA), respectively.
# (§2) Compounds of Examples S1 to S30, and 4-(carboxymethyl)-4-(6-(3-hexyloxy)phenoxy)hexanoamido)-1,1-dimethylpiperidinium 2,2,2-trifluoroactate (“Compound A”) were tested in this example. Each of the tested compounds was dissolved in DMSO and further diluted in cell culture medium for the experiments performed. Cells were seeded into 96-well plates with 1,500-5,000 cells/well according to cell growth rate. After 24 h, DMEM medium containing 10% FBS were changed to DMEM containing 3% FBS for cancer cells. The compound was added into the cell culture at the indicated concentrations, and the final concentration of DMSO was adjusted to a final concentration of 0.1%. Cell viability was assessed by Sulforhodamine B (SRB) assay at Day 6.
# (§3) Sulforhodamine B (SRB) (Sigma, Oakville, ON, Canada) is a water-soluble dye that binds to the basic amino acids of the cellular proteins. Thus, colorimetric measurement of the bound dye provides an estimate of the total protein mass that is related to the cell number. The cells were fixed in situ by gently aspirating off the culture media and adding 50 ul of cold 10% Tri-chloroacetic Acid (TCA) per well and incubated at 4° C. for 30-60 min. The plates were washed five times with water and allowed to air dry for 5 min. 50 ul of 0.4% (w/v) SRB dissolved in 1% (v/v) acetic acid were added into each well, plates were then incubated at RT for 30 min for staining, washed four times with 1% acetic acid to remove any unbound dye and then allowed to air dry for 5 min. Stain was solubilized with 100 ul of 10 mM Tris pH 10.5 per well. Absorbance was read at 570 nm on a spectrophotometer. GI50 (compound concentration required for 50% of growth inhibition) was calculated using GraphPad Prism 4.0 software (GraphPad Software, Inc., San Diego, Calif., USA). Growth inhibition (%) was determined as percentage of cells remaining compared to the DMSO-treated cells as control.
# SW626 = experiment: Cancer cell growth inhibition, SRB assay; assay type: cell-based, human; design: Percentage of Growth Inhibition: scale not given here; details: SW626; at 10 μM; SRB at Day 6; NE = no activity at 10 micromolar
# Experimental: as §1, §2, §3
# A172 = experiment: Cancer cell growth inhibition, SRB assay; assay type: cell-based, human; details: A172; at 10 μM; SRB at Day 6; NE = no activity at 10 micromolar
# Experimental: as §1, §2, §3
# PC-3 = experiment: Cancer cell growth inhibition, SRB assay; assay type: cell-based, human; details: PC-3; at 10 μM; SRB at Day 6; NE = no activity at 10 micromolar
# Experimental: as §1, §2, §3
# COLO-205 = experiment: Cancer cell growth inhibition, SRB assay; assay type: cell-based, human; details: COLO-205; at 10 μM; SRB at Day 6; NE = no activity at 10 micromolar
# H358 = experiment: Cancer cell growth inhibition, SRB assay; assay type: cell-based, human; design: Percentage of Growth Inhibition: unit not given here; details: H358; at 10 μM; SRB at Day 6; NE = no activity at 10 micromolar
# Experimental: as §1, §2, §3
# HCT-8 = experiment: Cancer cell growth inhibition, SRB assay; assay type: cell-based, human; details: at 10 μM, SRB at Day 6
# [1] = human CPT1A LC/MS assay, dose response format
Structure (SMILES),IC50 (human CPT1A; [1]) [µM],Percentage of Growth Inhibition (MCF-7) [%],Percentage of Growth Inhibition (SW626) [%],Percentage of Growth Inhibition (A172) [%],Percentage of Growth Inhibition (H358),other results
"CN1CCCC(CC(=O)O)(NC(=O)c2ccc(CCc3ccccc3)o2)C1 (centres unmarked) [Example S13, 3-(carboxymethyl)-1-methyl-3-(5-phenethylfuran-2-carboxamido)-piperidinium 2,2,2-trifluoroacetate]",100 to 1000,,,,,
"C[N+](C)(C)C[C@H](N)CC(=O)[O-] [L-aminocarnitine, reference compound]",,,,,,"IC50 (human CPT1A; dose response assay, n=17): 7 ± 2.5 µM"
"CCCCCCCCc1ccc(NC(=O)NC2(CC(=O)O)CCN(C)CC2)cc1 [Example S1, 4-(carboxymethyl)-1-methyl-4-(3-(4-octylphenyl)ureido)piperidinium 2,2,2-trifluoroacetate]",,0.1204,0.05142,0.1571,0.4324,Percentage of Growth Inhibition (SW480): 0.08459%; Percentage of Growth Inhibition (HCT-15): 0.05911%; Percentage of Growth Inhibition (SW620): 0.04345%; Percentage of Growth Inhibition (PC-3): 0.1924%; Percentage of Growth Inhibition (COLO-205): 0.07287%
"CCCCCCCCc1ccc(NS(=O)(=O)NC2(CC(=O)O)CNC2)cc1.O=C(O)C(F)(F)F [Example S28, 3-(carboxymethyl)-3-(N-(4-octylphenyl)sulfamoylamino)azetidinium 2,2,2-trifluoroacetate]",> 2500,0.04154,0.04727,0.3077,0.06989,Percentage of Growth Inhibition (PC-3): 0.6043%; Percentage of Growth Inhibition (HCT-8): 0.06675%
"CCCCCc1ccc(S(=O)(=O)NC2(CC(=O)O)CCN(C)C2)cc1 (centres unmarked) [Example S19, 3-(carboxymethyl)-1-methyl-3-(4-pentylphenylsulfonamido)-pyrrolidinium 2,2,2-trifluoroacetate]",100 to 1000,0.08166,,,,
"CCCCCCCCc1ccc(NC(=O)NC2(CC(=O)O)CCN(C)C2)cc1 (centres unmarked) [Example S17, 3-(carboxymethyl)-1-methyl-3-(3-(4-octylphenyl)ureido)pyrrolidinium 2,2,2-trifluoroacetate]",10 to 100,,,,,
"C[N+]1(C)CCCC(CC(=O)O)(NC(=O)c2ccc(CCc3ccccc3)o2)C1 (centres unmarked) [Example S14, 3-(carboxymethyl)-1,1-dimethyl-3-(5-phenethylfuran-2-carboxamido)piperidinium 2,2,2-trifluoroacetate]",10 to 100,,,,0.3919,Percentage of Growth Inhibition (SW620): 0.04122%
"CCCCCc1ccc(S(=O)(=O)NC2(CC(=O)O)CNC2)cc1 [Example S25, 3-(carboxymethyl)-3-(4-pentylphenylsulfonamido)azetidinium 2,2,2-trifluoroacetate]",> 2500,0.1452,0.07606,,0.05754,Percentage of Growth Inhibition (HCT-15): 0.00572%
"CCCCCc1ccc(S(=O)(=O)NC2(CC(=O)O)CCC[N+](C)(C)C2)cc1 (centres unmarked) [Example S12, 3-(carboxymethyl)-1,1-dimethyl-3-(4-pentylphenylsulfonamido)-piperidinium 2,2,2-trifluoroacetate]",≤ 1,0.2351,0.00486,0.07689,0.04495,Percentage of Growth Inhibition (COLO-205): 0.1281%
